“Also recorded” adds a separate entry of the source. Like-named read-outs stand apart in the source and are kept apart here.
What was measured:
[1] = Dynamic solubility test (water, SGF, FaSSIF, FeSSIF; 37° C.; 1, 4 and 24 hours); type: physicochemical; details: for S: Solubility (free concentration) / pH (of filtrate) / FC: Crystalline form transformation: 37° C.; for FC: Crystalline form transformation: XRPD of residual solid
Method: 0.2 g sodium chloride and 0.1 g Triton X-100 are weighted into a 100 mL volumetric flask. Pure water is added for dissolution, stirred until the solid is completely dissolved, about 1.632 mL hydrochloric acid (1M) is added, and the pH is adjusted to 1.8 with 1M hydrochloric acid or 1M sodium hydroxide, and finally it is diluted to volume with pure water.
0.34 g sodium dihydrogen phosphate (NaH2PO4, anhydrous), 0.042 g sodium hydroxide, and 0.62 g sodium chloride are weighted respectively into a 100 mL volumetric flask, about 48 mL pure water is added for dissolution, the pH is adjusted to 6.5 with 1M hydrochloric acid or 1M sodium hydroxide, and finally it is diluted to volume with pure water to obtain a stock solution. A 50-mL volumetric flask is taken. 0.11 g of SIF powder is added, and dissolved with the above stock solution, then diluted to volume. The powder is completely dissolve by ultrasound.
(§1) The purity test, dynamic solubility and stability test in the experiment are completed by Agilent 1260 high performance liquid chromatography. The salt-forming molar ratio test of ions is completed by ion chromatography test.
The dynamic solubility of crystalline form B/crystalline form C of 1,5-naphthalene disulfonate, crystalline form A of oxalate, crystalline form A of tartrate and free crystalline form A in water and three biological solvents were evaluated.
After sampling at each time point, the samples were centrifugally filtered (0.45 μm PTFE filter head), the free salt concentration and pH value in the filtrate were measured, and the solid samples after centrifugation were tested for XRPD.

[2] = Evaluation of hygroscopicity by Dynamic Vapor Sorption (DVS); type: physicochemical; details: for Transformation of crystalline form: after DVS test
Method: Dynamic Vapor Sorption (DVS) profiles are collected on the DVS Intrinsic of SMS (Surface Measurement Systems). Relative humidity at 25° C. is corrected with the deliquescent points of LiCl, Mg(NO3)2 and KCl.
The hygroscopicity of crystalline form B/crystalline form C of 1,5-naphthalene disulfonate, crystalline form A of oxalate, crystalline form A of tartrate and free crystalline form A were evaluated by DVS.

[3] = Solid state stability assessment (XRPD and HPLC after exposure at 25° C./60% RH and 40° C./75% RH); type: physicochemical
Method: XRPD patterns are collected on an X-ray powder diffraction analyzer produced by PANalytacal, and Table 2 lists the XRPD parameters.
as §1
After leaving the crystalline form C of 1,5-naphthalene disulfonate in the exposure evaporation at 25° C./60% RH and 40° C./75% RH for 1 week, […] and 4 weeks. The physical and chemical stability of the sample was tested by XRPD and HPLC, and the stability data of crystalline form A of tartrate and free crystalline form A at 1 week, 2 weeks and 4 weeks were used as a reference. At the same time, the stability of crystalline form B of 1,5-naphthalene disulfonate and crystalline form A of oxalate was tested under the conditions of 25° C./60% RH and 40° C./75% RH for 1 week.

[4] = as described in WO2011066352A1; cited from earlier work
[5] = plasma concentration of eliglustat 500 ng/ml; cited from earlier work
[6] = 1 week of exposure at 25° C./60% RH and 40° C./75% RH
[7] = left exposed for 4 weeks at 25° C./60% RH and 40° C./75% RH

## CCCCCCCC(=O)N[C@H](CN1CCCC1)[C@H](O)c1ccc2c(c1)OCCO2.CCCCCCCC(=O)N[C@H](CN1CCCC1)[C@H](O)c1ccc2c(c1)OCCO2.O=S(=O)(O)c1cccc2c(S(=O)(=O)O)cccc12
[1]; FaSSIF, 1 hr
  S: Solubility (free concentration): 2700 µg/mL
  pH (of filtrate): 6.52
  FC: Crystalline form transformation: Yes
[1]; FaSSIF, 4 hrs
  S: Solubility (free concentration): 2700 µg/mL
  pH (of filtrate): 6.51
  FC: Crystalline form transformation: Yes
[1]; FaSSIF, 12 hrs
  S: Solubility (free concentration): 2600 µg/mL
  pH (of filtrate): 6.52
  FC: Crystalline form transformation: Yes
[1]; H2O, 1 hr
  S: Solubility (free concentration): 1900 µg/mL
  pH (of filtrate): 7.67
  FC: Crystalline form transformation: Yes
[1]; H2O, 4 hrs
  S: Solubility (free concentration): 2000 µg/mL
  pH (of filtrate): 7.67
  FC: Crystalline form transformation: Yes
[1]; H2O, 12 hrs
  S: Solubility (free concentration): 2000 µg/mL
  pH (of filtrate): 7.75
  FC: Crystalline form transformation: Yes
[1]; SGF, 1 hr
  S: Solubility (free concentration): 2700 µg/mL
  pH (of filtrate): 1.84
  FC: Crystalline form transformation: Yes
[1]; SGF, 4 hrs
  S: Solubility (free concentration): 2500 µg/mL
  pH (of filtrate): 1.75
  FC: Crystalline form transformation: Yes
[1]; SGF, 12 hrs
  S: Solubility (free concentration): 2300 µg/mL
  pH (of filtrate): 1.77
  FC: Crystalline form transformation: Yes
[2]; DVS
  Hygroscopic weight gain at 25° C./80% RH: 0.59%
[2]
  Transformation of crystalline form: Change to crystalline
[2]; listed as crystalline form B of 1,5-naphthalene disulfonate
  Transformation of crystalline form: changed to crystalline form C
[2]; humidity higher than 80% RH at 25° C.
  hygroscopic weight gain (in words): significant hygroscopic weight gain
[3]; [6]
  decrease in HPLC purity: no decrease in HPLC purity was observed
[3]; left exposed for a week at 40° C./75% RH
  change in crystalline form (XRPD): partially transformed into the crystalline form C

## CCCCCCCC(=O)N[C@H](CN1CCCC1)[C@H](O)c1ccc2c(c1)OCCO2.CCCCCCCC(=O)N[C@H](CN1CCCC1)[C@H](O)c1ccc2c(c1)OCCO2.O.O.O=S(=O)(O)c1cccc2c(S(=O)(=O)O)cccc12
[1]; FaSSIF, 1 hr
  S: Solubility (free concentration): 2900 µg/mL
  pH (of filtrate): 6.48
  FC: Crystalline form transformation: No
[1]; FaSSIF, 4 hrs
  S: Solubility (free concentration): 2800 µg/mL
  pH (of filtrate): 6.48
  FC: Crystalline form transformation: No
[1]; FaSSIF, 12 hrs
  S: Solubility (free concentration): 3000 µg/mL
  pH (of filtrate): 6.49
  FC: Crystalline form transformation: No
[1]; H2O, 1 hr
  S: Solubility (free concentration): 2000 µg/mL
  pH (of filtrate): 7.39
  FC: Crystalline form transformation: No
[1]; H2O, 4 hrs
  S: Solubility (free concentration): 1900 µg/mL
  pH (of filtrate): 7.33
  FC: Crystalline form transformation: No
[1]; H2O, 12 hrs
  S: Solubility (free concentration): 2000 µg/mL
  pH (of filtrate): 7.45
  FC: Crystalline form transformation: No
[1]; SGF, 1 hr
  S: Solubility (free concentration): 2600 µg/mL
  pH (of filtrate): 1.80
  FC: Crystalline form transformation: No
[1]; SGF, 4 hrs
  S: Solubility (free concentration): 2400 µg/mL
  pH (of filtrate): 1.88
  FC: Crystalline form transformation: No
[1]; SGF, 12 hrs
  S: Solubility (free concentration): 2600 µg/mL
  pH (of filtrate): 1.89
  FC: Crystalline form transformation: No
[2]; DVS
  Hygroscopic weight gain at 25° C./80% RH: 0.33%
  hygroscopic weight gain at 25° C./80% RH: 0.33 wt %
[2]
  Transformation of crystalline form: No change
[2]; listed as crystalline form C of 1,5-naphthalene disulfonate
  Transformation of crystalline form: no change in crystalline form
[3]; [7]
  change in crystalline form (XRPD): no change in crystalline form
  decrease in HPLC purity: no change in crystalline form or decrease in HPLC purity was observed

## CCCCCCCC(=O)NC(CN1CCCC1)C(O)c1ccc2c(c1)OCCO2.O=C(O)C(O)C(O)C(=O)O (stereo not drawn) [1:1 tartrate salt]
[4]
  hygroscopicity (in words): too hygroscopic for formulation

## CCCCCCCC(=O)N[C@H](CN1CCCC1)[C@H](O)c1ccc2c(c1)OCCO2.CCCCCCCC(=O)N[C@H](CN1CCCC1)[C@H](O)c1ccc2c(c1)OCCO2.O=C(O)C(=O)O [Crystalline form A of oxalate]
[1]; FaSSIF, 1 hr
  S: Solubility (free concentration): ≥8100 µg/mL
  pH (of filtrate): 6.52
[1]; FaSSIF, 4 hrs
  S: Solubility (free concentration): ≥8200 µg/mL
  pH (of filtrate): 6.48
[1]; FaSSIF, 12 hrs
  S: Solubility (free concentration): ≥8100 µg/mL
  pH (of filtrate): 6.47
[1]; H2O, 1 hr
  S: Solubility (free concentration): 6800 µg/mL
  pH (of filtrate): 7.07
  FC: Crystalline form transformation: No
[1]; H2O, 4 hrs
  S: Solubility (free concentration): 7800 µg/mL
  pH (of filtrate): 7.51
  FC: Crystalline form transformation: No
[1]; H2O, 12 hrs
  S: Solubility (free concentration): 8000 µg/mL
  pH (of filtrate): 7.30
  FC: Crystalline form transformation: No
[1]; SGF, 1 hr
  S: Solubility (free concentration): ≥8400 µg/mL
  pH (of filtrate): 2.19
[1]; SGF, 4 hrs
  S: Solubility (free concentration): ≥8500 µg/mL
  pH (of filtrate): 2.17
[1]; SGF, 12 hrs
  S: Solubility (free concentration): ≥8200 µg/mL
  pH (of filtrate): 2.05
[2]; DVS
  Hygroscopic weight gain at 25° C./80% RH: 7.64%
  hygroscopic weight gain at 25° C./80% RH: 7.64 wt %
[2]
  Transformation of crystalline form: No change
[2]; listed as crystalline form A of oxalate
  Transformation of crystalline form: no change in crystalline form
[2]; humidity lower than 10% RH
  weight loss (in words): Significant weight loss
[3]; [6]
  decrease in HPLC purity: no decrease in HPLC purity was observed

## CCCCCCCC(=O)N[C@H](CN1CCCC1)[C@H](O)c1ccc2c(c1)OCCO2.O=S(=O)(O)c1cccc2c(S(=O)(=O)O)cccc12 [Eliglustat 1,5-naphthalene disulfonate]
[1]; water versus SGF, in words
  solubility difference in water and simulated gastric fluid: small
[2]; comparison in words
  hygroscopicity compared with eliglustat hemitartrate crystalline form A: lower hygroscopicity over eliglustat hemitartrate crystalline form A

## CCCCCCCC(=O)N[C@H](CN1CCCC1)[C@H](O)c1ccc2c(c1)OCCO2 [Free crystalline form A, reference compound]
[1]; FaSSIF, 1 hr
  S: Solubility (free concentration): 4400 µg/mL
  pH (of filtrate): 7.31
  FC: Crystalline form transformation: No
[1]; FaSSIF, 4 hrs
  S: Solubility (free concentration): 4400 µg/mL
  pH (of filtrate): 7.29
  FC: Crystalline form transformation: No
[1]; FaSSIF, 12 hrs
  S: Solubility (free concentration): 4200 µg/mL
  pH (of filtrate): 7.30
  FC: Crystalline form transformation: No
[1]; H2O, 1 hr
  S: Solubility (free concentration): 120 µg/mL
  pH (of filtrate): 9.24
  FC: Crystalline form transformation: No
[1]; H2O, 4 hrs
  S: Solubility (free concentration): 130 µg/mL
  pH (of filtrate): 9.03
  FC: Crystalline form transformation: No
[1]; H2O, 12 hrs
  S: Solubility (free concentration): 170 µg/mL
  pH (of filtrate): 8.80
  FC: Crystalline form transformation: No
[1]; SGF, 1 hr
  S: Solubility (free concentration): 6600 µg/mL
  pH (of filtrate): 7.27
  FC: Crystalline form transformation: No
[1]; SGF, 4 hrs
  S: Solubility (free concentration): 6700 µg/mL
  pH (of filtrate): 7.26
  FC: Crystalline form transformation: No
[1]; SGF, 12 hrs
  S: Solubility (free concentration): 6500 µg/mL
  pH (of filtrate): 7.30
  FC: Crystalline form transformation: No
[2]; DVS
  hygroscopicity (in words): almost no hygroscopicity
  Hygroscopic weight gain at 25° C./80% RH: 0.01%
[2]
  Transformation of crystalline form: did not change in crystalline form; also recorded: No change
[3]; [7]
  change in crystalline form (XRPD): no change in crystalline form
  decrease in HPLC purity: no change in crystalline form or decrease in HPLC purity was observed

## CCCCCCCC(=O)N[C@H](CN1CCCC1)[C@H](O)c1ccc2c(c1)OCCO2 [eliglustat]
[5]
  predicted mean increase in PR interval: 22 (26) milliseconds
  predicted mean increase in QRS interval: 7 (10) milliseconds
  predicted mean increase in QTcF interval: 13 (19) milliseconds

## CCCCCCCC(=O)N[C@H](CN1CCCC1)[C@H](O)c1ccc2c(c1)OCCO2.Cl [hydrochloride salt]
[4]
  hygroscopicity (in words): too hygroscopic for formulation

Source: US20250002453A1, “PHARMACEUTICALLY ACCEPTABLE SALT OF ELIGLUSTAT AND CRYSTAL FORM THEREOF” (SPEROGENIX (SHANGHAI) MEDTECH CO., LTD., priority 2021, published 2025)
